Biological target: T1, AChE from electric eel (Electrophorus electricus) (Electrophorus electricus, UniProt O42275)
T1 construct: purchased Sigma-Aldrich GmbH (Steinheim, Germany)
Assay: HPTLC-(Ox)-AChE-I assay, immersion method (plates immersed in AChE solution)
Type: biochemical
Details: without oxidation; for IC10 (10% AChE inhibition), best fit / IC20 (20% AChE inhibition), best fit / IC50 (50% AChE inhibition), best fit / IC80 (80% AChE inhibition), best fit: OTPs 100 µL, oxons 10 µL applied, peak heights, n = 3
Procedure: LiChrospher 10 × 20 cm HPTLC Silica gel 60 F254s plates (Merck, Darmstadt, Germany) with a layer thickness of 170–190 µm and spherical silica particles with a size of 7 µm were used. The HPTLC plates were immersed twice in 2-propanol for 20 min, each time followed by a drying step at room temperature for 20 min. The plates then were pre-developed with methanol, dried for 20 min at room temperature, heated at 105 °C for 20 min, and stored in a desiccator for further use. The automatic TLC Sampler 4 (ATS 4, CAMAG AG, Muttenz, Switzerland) was used for sample application. The desired sample volumes were sprayed as 6-mm-wide bands onto the HPTLC plates with an application speed of 300 nL/s. The distances of the exterior bands from the edges of the plates were 15 mm. The distance from the bottom edge was 8 mm for all bands. Methanol was used as rinsing solvent. The following further application parameters were used: filling speed 15 µL/s, pre-dosage volume 200 nL, retraction volume 200 nL, rinsing vacuum time 4 s, filling vacuum time 0 s, rinsing cycles 2, and filling cycles 1. The development of the HPTLC plates was realized by the Automated Multiple Development 2 (AMD 2, CAMAG, Muttenz, Switzerland). The OTPs, their oxons, and environmental samples were separated with an eluent mixture of cyclohexane, dichloromethane, and acetone in different proportions and with increasing migration distances (Fig. S2). After each development step, a drying step of 3 min under vacuum followed. The final migration distance was 80 mm and the whole procedure took approximately 45 min. In addition, a simpler development process was used containing only the last step of the previous described method.
After chromatographic development, 10 mL of freshly prepared NBS (100 µg/mL) was sprayed onto the HPTLC plates with a glass reagent sprayer, followed by a 5-min incubation at room temperature. The following AChE-I assay was performed in parts according to Mendoza et al., Stütz et al., and Weins and Jork. AChE was buffered in TRIS/HCl at a pH of 7.8 (2.5 U/mL). The AChE solution was either sprayed onto the HPTLC plates with a glass reagent sprayer until the plates were evenly moist (approx. 10 mL) or the plates were immersed in the AChE solution using the Chromatogram Immersion Device 3 (CID 3, CAMAG, Muttenz, Switzerland). The immersion volume, speed, time, and depth were approx. 200 mL, 2.5 cm/s, 2 s, and approx. 85 mm, respectively. Afterward, the plates were placed separately in closed plastic boxes, which contained paper towels moistened with water to gain a saturated atmosphere. An incubation at 37 °C for 5 min followed. The substrate indoxyl acetate was freshly prepared in methanol at a concentration of 20 mg/mL and 5 mL was sprayed onto the HPTLC plates with a glass reagent sprayer. During 45-min incubation time at room temperature, AChE cleaves the substrate into indoxyl and acetate. The indoxyl reacts with oxygen to the blue indigo dye. When AChE was inhibited, no indigo was produced and the spot stayed white. The TLC Scanner 3 (CAMAG, Muttenz, Switzerland) was used to scan each track on the plates at 670 nm using the fluorescence mode without optical filter. The CAMAG-embedded software Wincats (Vers. 1.4.9) was used to provide chromatograms of each track and to evaluate inhibition zones.
Several amounts of an OTP mix and an oxon mix were applied on HPTLC plates (Tab. S2) and tested as described in the “Combination of HPTLC and AChE-inhibition assay” section. Three plates were used for each dilution series. The application volume was 10 µL for investigating OTPs with following oxidation and 100 µL for testing OTPs without following oxidation. The application volume for the oxons was 10 µL. They were tested without oxidation step also in triplicates. The peak heights were used for evaluation. Only peaks that have a signal-to-noise ratio ≥ 3 were considered in the evaluation. The height next to the respective peak defines the noise. […]

T1 sequence (O42275 24-633): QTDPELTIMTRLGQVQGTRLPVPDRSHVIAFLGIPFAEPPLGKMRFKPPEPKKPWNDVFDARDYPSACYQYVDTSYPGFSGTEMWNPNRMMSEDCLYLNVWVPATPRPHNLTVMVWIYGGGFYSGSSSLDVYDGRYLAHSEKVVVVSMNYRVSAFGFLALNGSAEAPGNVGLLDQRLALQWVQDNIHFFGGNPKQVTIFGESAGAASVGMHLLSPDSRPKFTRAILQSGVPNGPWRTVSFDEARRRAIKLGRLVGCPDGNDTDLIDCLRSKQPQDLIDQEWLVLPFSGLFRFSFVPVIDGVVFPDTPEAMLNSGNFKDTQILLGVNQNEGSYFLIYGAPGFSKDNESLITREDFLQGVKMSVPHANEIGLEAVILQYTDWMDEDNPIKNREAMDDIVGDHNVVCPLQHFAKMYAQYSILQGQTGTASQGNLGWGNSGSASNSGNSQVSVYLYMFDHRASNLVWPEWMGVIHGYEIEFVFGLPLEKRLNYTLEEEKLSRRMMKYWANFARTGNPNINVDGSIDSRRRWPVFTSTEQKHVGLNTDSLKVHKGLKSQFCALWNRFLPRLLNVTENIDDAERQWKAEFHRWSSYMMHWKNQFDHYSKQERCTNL

| Structure (SMILES) | LOD immersion method (first detected AChE-I peak with signal-to-noise ratio ≥ 3) [ng/spot] | IC10 (10% AChE inhibition), best fit [ng/spot] | IC20 (20% AChE inhibition), best fit [ng/spot] | IC50 (50% AChE inhibition), best fit [ng/spot] | IC80 (80% AChE inhibition), best fit [ng/spot] |
| --- | --- | --- | --- | --- | --- |
| CCOP(=O)(OCC)Oc1nc(Cl)c(Cl)cc1Cl [Chlorpyrifos-oxon] | 0.25 | 0.32 | 0.57 | 1.5 | 4.0 |
| CCOC(=O)CC(SP(=O)(OC)OC)C(=O)OCC (stereo not shown) [Malaoxon, malaoxon] | 0.1 | 0.14 | 0.24 | 0.60 | 1.5 |
